Experimental data as given in the supplement of paper PMC10307832.

Columns and labels:
Assay in all cases: relative viability (nuclei count vs DMSO), 5 days (fraction); higher = more cells survive
RERF-LC-KJ = tested on: RERF-LC-KJ
How it was run: (§1)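 Relative viability was taken as the ratio of nuclei in treated wells to nuclei in vehicle wells. Lung cancer cell lines in 1536-well plates received compounds by pin tool one day after seeding, either one drug alone or a fixed anchor-drug dose plus five library-drug doses (not always all listed) in √10 steps. Nuclei were counted on 4× images after 5 days of treatment, and values are medians of duplicate plates.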

HARA = tested on: HARA
How it was run: as §1

SW 1573 = tested on: SW 1573
How it was run: as §1

201T = tested on: 201T
How it was run: as §1

HCC-44 = tested on: HCC-44
How it was run: as §1

NCI-H1650 = tested on: NCI-H1650
How it was run: as §1

LOU-NH91 = tested on: LOU-NH91
How it was run: as §1

A-427 = tested on: A-427
How it was run: as §1

NCI-H2023 = tested on: NCI-H2023
How it was run: as §1

HCC-15 = tested on: HCC-15
How it was run: as §1

HCC-366 = tested on: HCC-366
How it was run: as §1

ChaGo-K-1 = tested on: ChaGo-K-1
How it was run: as §1

NCI-H441 = tested on: NCI-H441
How it was run: as §1

NCI-H1993 = tested on: NCI-H1993
How it was run: as §1

NCI-H2126 = tested on: NCI-H2126
How it was run: as §1

COR-L23 = tested on: COR-L23
How it was run: as §1

LCLC-97TM1 = tested on: LCLC-97TM1
How it was run: as §1

NCI-H1734 = tested on: NCI-H1734
How it was run: as §1

LCLC-103H = tested on: LCLC-103H
How it was run: as §1

NCI-H2009 = tested on: NCI-H2009
How it was run: as §1

NCI-H460 = tested on: NCI-H460
How it was run: as §1

NCI-H650 = tested on: NCI-H650
How it was run: as §1

HCC-78 = tested on: HCC-78
How it was run: as §1

O=C(O)CCCCC(CCSCc1ccccc1)SCc1ccccc1 (stereo not given) [CPI-613] + CC(C)C[C@H](NC(=O)[C@H](Cc1ccccc1)NC(=O)c1cnccn1)B(O)O [Bortezomib] (partner 0.002 µM)
relative viability (RERF-LC-KJ; first compound 5 µM): 1.1
relative viability (RERF-LC-KJ; first compound 15.81 µM): 1.13
relative viability (RERF-LC-KJ; first compound 50 µM): 1.08
relative viability (RERF-LC-KJ; first compound 158.11 µM): 1.07
relative viability (RERF-LC-KJ; first compound 500 µM): 0.958
relative viability (HARA; first compound 5 µM): 1.02
relative viability (HARA; first compound 15.81 µM): 1.09
relative viability (HARA; first compound 50 µM): 1.19
relative viability (HARA; first compound 158.11 µM): 0.716
relative viability (HARA; first compound 500 µM): 0.114
relative viability (SW 1573; first compound 5 µM): 0.951
relative viability (SW 1573; first compound 15.81 µM): 0.985
relative viability (SW 1573; first compound 50 µM): 0.979
relative viability (SW 1573; first compound 158.11 µM): 0.884
relative viability (SW 1573; first compound 500 µM): 0.802
relative viability (201T; first compound 5 µM): 1.08
relative viability (201T; first compound 15.81 µM): 1.03
relative viability (201T; first compound 50 µM): 1.09
relative viability (201T; first compound 158.11 µM): 0.995
relative viability (201T; first compound 500 µM): 0.949
relative viability (HCC-44; first compound 5 µM): 0.878
relative viability (HCC-44; first compound 15.81 µM): 0.832
relative viability (HCC-44; first compound 50 µM): 0.913
relative viability (HCC-44; first compound 158.11 µM): 0.596
relative viability (HCC-44; first compound 500 µM): 0.0155
relative viability (NCI-H1650; first compound 5 µM): 0.196
relative viability (NCI-H1650; first compound 15.81 µM): 0.204
relative viability (NCI-H1650; first compound 50 µM): 0.187
relative viability (NCI-H1650; first compound 158.11 µM): 0.0869
relative viability (NCI-H1650; first compound 500 µM): 0.0195
relative viability (LOU-NH91; first compound 5 µM): 0.49
relative viability (LOU-NH91; first compound 15.81 µM): 0.524
relative viability (LOU-NH91; first compound 50 µM): 0.393
relative viability (LOU-NH91; first compound 158.11 µM): 0.435
relative viability (LOU-NH91; first compound 500 µM): 0.467
relative viability (A-427; first compound 5 µM): 0.939
relative viability (A-427; first compound 15.81 µM): 0.901
relative viability (A-427; first compound 50 µM): 0.96
relative viability (A-427; first compound 158.11 µM): 0.761
relative viability (A-427; first compound 500 µM): 0.253
relative viability (NCI-H2023; first compound 5 µM): 0.932
relative viability (NCI-H2023; first compound 15.81 µM): 0.947
relative viability (NCI-H2023; first compound 50 µM): 0.961
relative viability (NCI-H2023; first compound 158.11 µM): 0.042
relative viability (NCI-H2023; first compound 500 µM): 0.0072
relative viability (HCC-15; first compound 5 µM): 0.938
relative viability (HCC-15; first compound 15.81 µM): 0.932
relative viability (HCC-15; first compound 50 µM): 0.905
relative viability (HCC-15; first compound 158.11 µM): 0.757
relative viability (HCC-15; first compound 500 µM): 0.394
relative viability (HCC-366; first compound 5 µM): 1.01
relative viability (HCC-366; first compound 15.81 µM): 0.957
relative viability (HCC-366; first compound 50 µM): 1.06
relative viability (HCC-366; first compound 158.11 µM): 0.391
relative viability (HCC-366; first compound 500 µM): 0.0068
relative viability (ChaGo-K-1; first compound 5 µM): 0.836
relative viability (ChaGo-K-1; first compound 15.81 µM): 0.855
relative viability (ChaGo-K-1; first compound 50 µM): 0.804
relative viability (ChaGo-K-1; first compound 158.11 µM): 0.671
relative viability (ChaGo-K-1; first compound 500 µM): 0.554
relative viability (NCI-H441; first compound 5 µM): 0.447
relative viability (NCI-H441; first compound 15.81 µM): 0.44
relative viability (NCI-H441; first compound 50 µM): 0.537
relative viability (NCI-H441; first compound 158.11 µM): 0.129
relative viability (NCI-H441; first compound 500 µM): 0.005
relative viability (NCI-H1993; first compound 5 µM): 0.953
relative viability (NCI-H1993; first compound 15.81 µM): 0.918
relative viability (NCI-H1993; first compound 50 µM): 0.943
relative viability (NCI-H1993; first compound 158.11 µM): 0.717
relative viability (NCI-H1993; first compound 500 µM): 0.363
relative viability (NCI-H2126; first compound 5 µM): 1.11
relative viability (NCI-H2126; first compound 15.81 µM): 1.06
relative viability (NCI-H2126; first compound 50 µM): 1.04
relative viability (NCI-H2126; first compound 158.11 µM): 0.669
relative viability (NCI-H2126; first compound 500 µM): 0.761
relative viability (COR-L23; first compound 5 µM): 0.938
relative viability (COR-L23; first compound 15.81 µM): 0.941
relative viability (COR-L23; first compound 50 µM): 1
relative viability (COR-L23; first compound 158.11 µM): 0.408
relative viability (COR-L23; first compound 500 µM): 0.0074
relative viability (LCLC-97TM1; first compound 5 µM): 0.728
relative viability (LCLC-97TM1; first compound 15.81 µM): 0.276
relative viability (LCLC-97TM1; first compound 50 µM): 0.583
relative viability (LCLC-97TM1; first compound 158.11 µM): 0.532
relative viability (LCLC-97TM1; first compound 500 µM): 0.819
relative viability (NCI-H1734; first compound 5 µM): 0.858
relative viability (NCI-H1734; first compound 15.81 µM): 0.846
relative viability (NCI-H1734; first compound 50 µM): 0.877
relative viability (NCI-H1734; first compound 158.11 µM): 0.278
relative viability (NCI-H1734; first compound 500 µM): 0.101
relative viability (LCLC-103H; first compound 5 µM): 1.08
relative viability (LCLC-103H; first compound 15.81 µM): 0.94
relative viability (LCLC-103H; first compound 50 µM): 0.966
relative viability (LCLC-103H; first compound 158.11 µM): 0.985
relative viability (LCLC-103H; first compound 500 µM): 1.06
relative viability (NCI-H2009; first compound 5 µM): 1.07
relative viability (NCI-H2009; first compound 15.81 µM): 0.942
relative viability (NCI-H2009; first compound 50 µM): 0.884
relative viability (NCI-H2009; first compound 158.11 µM): 0.0722
relative viability (NCI-H2009; first compound 500 µM): 0.0082
relative viability (NCI-H460; first compound 5 µM): 1.07
relative viability (NCI-H460; first compound 15.81 µM): 1.12
relative viability (NCI-H460; first compound 50 µM): 0.895
relative viability (NCI-H460; first compound 158.11 µM): 0.445
relative viability (NCI-H460; first compound 500 µM): 0.0063
relative viability (NCI-H650; first compound 5 µM): 0.828
relative viability (NCI-H650; first compound 15.81 µM): 0.617
relative viability (NCI-H650; first compound 50 µM): 0.92
relative viability (NCI-H650; first compound 158.11 µM): 0.689
relative viability (NCI-H650; first compound 500 µM): 0.452
relative viability (HCC-78; first compound 5 µM): 0.5
relative viability (HCC-78; first compound 15.81 µM): 0.397
relative viability (HCC-78; first compound 50 µM): 0.553
relative viability (HCC-78; first compound 158.11 µM): 0.445
relative viability (HCC-78; first compound 500 µM): 0.602
